Data on three compounds can be found in patent US20160159861A1, “APJ Receptor Compounds” (priority 2013, published 2016).

Holding throughout (format): cell-based
Data set [1] concerns the target T1, human APJ receptor (hAPJ) (Homo sapiens, UniProt P35414).
T1 construct: expressed in transfected cells
T1 sequence (P35414 1-380): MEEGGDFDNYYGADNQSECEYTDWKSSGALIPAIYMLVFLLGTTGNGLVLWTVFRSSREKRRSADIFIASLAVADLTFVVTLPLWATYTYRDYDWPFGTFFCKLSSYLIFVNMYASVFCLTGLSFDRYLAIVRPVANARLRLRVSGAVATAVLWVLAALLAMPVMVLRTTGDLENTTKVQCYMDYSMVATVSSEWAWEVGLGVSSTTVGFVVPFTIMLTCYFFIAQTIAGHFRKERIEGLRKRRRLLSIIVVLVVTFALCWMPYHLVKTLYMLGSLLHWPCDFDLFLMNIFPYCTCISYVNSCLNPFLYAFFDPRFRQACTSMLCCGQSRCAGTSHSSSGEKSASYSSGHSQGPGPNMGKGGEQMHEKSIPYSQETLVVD
In words: HTRF cAMP assay: inhibition of NKH477-stimulated cAMP in HEK cells stably expressing hAPJ. The following applies: for Emax: HEK293, read-out: % IA, bound stated; for % IA (cAMP inhibition, hAPJ HEK): intrinsic activity; for Ranking: composite class of EC50 (hAPJ), % IA and % histamine or formal (+) charge; for inhibition of NKH477-stimulated increase in cAMP, dose dependent: concentration response curves, FIGS. 1 and 2, HEK cells stably expressing APJ. In short, it runs like this:
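HEK cells stably expressing hAPJ, induced with 1 nG/mL doxycycline and seeded overnight at 40 k/well. cAMP read by HTRF competitive immunoassay using cryptate-labeled anti-cAMP antibody and d2-labeled cAMP.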
(In TR-FRET formats the signal depends on donor and acceptor labels being close together.)

The target of data set [2] is T2, APJ receptor (Homo sapiens, UniProt P35414).
T2 sequence (P35414 1-380): T1 sequence (P35414 1-380)
Briefly: Cellul'erk ERK phosphorylation assay in APJ-TREX cells. Set-up: expressed in transfected cells; host or cells: Human TRex (APJ-TREX) cells, doxycycline-inducible expression. The following applies: relative to max pyr-apelin-13 activity at 100 nM; 3 or 0.3 μM compound, 5 minutes.
Protocol: Experiments were performed to test activation of the ERK and p38 pathways using the Cellul'erk and the Phospho-p38 MAPK (Thr180/Tyr182) assay kits (Cisbio). APJ-TREX cells were optimized for signaling (pre-serum starved overnight with low FBS serum (2% FBS media) with 1 ng/ml doxycyclin (for induction of APJ receptor expression), 50,000 cells, 5 minutes agonist activation for ERK activity). Cells were pretreated with 3 or 0.3 μM pepducin compound for 5 minutes and the reaction was stopped by lysis buffer. Lysates are then transferred to the assay plate for the detection of phosphorylated ERK or p38 by HTRF reagents.

In the next data set the target is CXCR4 receptor (Homo sapiens, UniProt P61073). Briefly: Activity at CXCR4 receptor (selectivity, Gi-coupled GPCR). To be noted: FIGS. 6A-6C, selectivity vs. hAPJ.
Chain of CXCR4 receptor (P61073 whole entry): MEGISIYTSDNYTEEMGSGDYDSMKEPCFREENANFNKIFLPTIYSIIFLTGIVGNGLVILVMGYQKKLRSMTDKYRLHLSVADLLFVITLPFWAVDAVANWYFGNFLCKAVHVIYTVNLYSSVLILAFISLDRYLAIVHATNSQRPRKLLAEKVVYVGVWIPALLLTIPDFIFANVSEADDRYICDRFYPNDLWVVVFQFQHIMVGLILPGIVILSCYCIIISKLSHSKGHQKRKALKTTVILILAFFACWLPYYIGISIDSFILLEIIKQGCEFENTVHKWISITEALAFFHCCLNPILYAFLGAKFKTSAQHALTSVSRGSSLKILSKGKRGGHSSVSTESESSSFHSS
For data set [3], the target named is T2, APJ receptor. Briefly: DiscoveRx PathHunter β-arrestin recruitment assay. An excerpt:
Activation of the β-Arrestin signaling pathway was monitored using the commercially available DiscoveRx PathHunter® assay. This assay employs a homogenous, non-imaging assay format called Enzyme Fragment Complementation (EFC) using β-galactosidase (β-Gal) as the functional reporter. […] EA is fused to β-Arrestin and ED is fused to the GPCR of interest. When the GPCR is activated and β-Arrestin is recruited to the receptor, ED and EA complementation occurs, restoring βGal activity which is measured using chemiluminescent PathHunter® Detection Reagent.

The subject of a further data set is rat peritoneal cells. In words: Ex vivo histamine release assay in rat peritoneal cells (vs. Compound 48/80). The following applies: histamine release from rat peritoneal cells relative to Compound 48/80. In outline:
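Resident peritoneal cells were lavaged from male Sprague Dawley rats and kept in HBSS/20 mM HEPES/0.2% BSA at 25,000 cells/well. They were exposed for 30 min at room temperature to compound at 3 points (100, 10, 1 μM DMSO stocks, 1% DMSO final). Released histamine was measured by HTRF and normalised to total histamine after Triton lysis. Compound 48/80 was the reference.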

Where [4] appears, read: HTRF cAMP Assay, per data of Table 6.
Where [5] appears, read: HTRF cAMP Assay, per data of Table 6, read-out: EC50 (hAPJ), inhibition of cAMP production, bound stated.
Where [6] appears, read: Table 6, hAPJ HEK cells, NKH477-stimulated cAMP, read-out: EC50 (cAMP inhibition, hAPJ HEK).

Read-outs that look alike come from different tables or passages of the source. Peptide text beside a SMILES is read from it. Some results are limits rather than exact numbers.

Broadly, the EC50 is the midpoint of the concentration-response curve.

`CCCCCCCCCCCCCCCC(=O)N[C@H](C(=O)N[C@H](C(=O)N[C@@H](Cc1ccccc1)C(=O)N[C@@H](CCCNC(=N)N)C(=O)N[C@@H](CO)C(=O)N[C@@H](CCC(=O)O)C(=O)N[C@H](CCCCN)C(=O)N[C@@H](CCCNC(=N)N)C(=O)N[C@@H](CCCNC(=N)N)C(=O)N[C@@H](CO)C(=O)N[C@@H](C)C(=O)N[C@@H](CC(=O)O)C(=O)N[C@@H](CCC(N)=O)C(=O)N[C@@H](Cc1ccccc1)C(=O)N[C@H](C(N)=O)[C@@H](C)CC)C(C)C)[C@@H](C)O` [Compound 14] (HELM PEPTIDE1{[CCCCCCCCCCCCCCCC(=O)[*:2]].T.V.F.R.S.E.[dK].R.R.S.A.D.Q.F.I.[am]}$$$$V2.0): the Emax in data set [1] (setting [4]) was at least 80%. The concentration giving a half-maximal response (EC50) in data set [1] (setting [5]) is at most 25 nM. For the same compound, the concentration for a half-maximal effect (EC50) in data set [1] (setting [6]) is 8 nM. Moreover, the “% IA (cAMP inhibition, hAPJ HEK)” value in data set [1] (Table 6, hAPJ HEK cells) stood at 87%. In data set [1], the Ranking result is “**** (EC50≦25 nM (hAPJ), % IA≧80% and either % histamine>35% or formal (+) charge>1)”; the “inhibition of NKH477-stimulated increase in cAMP, dose dependent” value (“inhibition of NKH477-stimulated increase” for short) is recorded as “inhibited”. Further, the “Average % Activity (ERK agonist activity)” value at APJ receptor [2] came to 58.2%. Further, the “activity at the CXCR4 receptor” value on CXCR4 receptor is recorded as “lack of dose-responsive activity”.
Consider `CCCCCCCCCCCCCCCC(=O)N[C@H](C(=O)N[C@H](C(=O)N[C@@H](Cc1ccccc1)C(=O)N[C@@H](CCCNC(=N)N)C(=O)N[C@@H](CO)C(=O)N[C@@H](CO)C(=O)N[C@@H](CCC(=O)O)C(=O)N[C@H](CCCCN)C(=O)N[C@@H](CCCNC(=N)N)C(=O)N[C@@H](CCCNC(=N)N)C(=O)N[C@@H](CO)C(=O)N[C@@H](C)C(=O)N[C@@H](CC(=O)O)C(=O)N[C@@H](CC(N)=O)C(=O)N[C@@H](Cc1ccccc1)C(=O)N[C@H](C(N)=O)[C@@H](C)CC)C(C)C)[C@@H](C)O` [Compound 18] (HELM PEPTIDE1{[CCCCCCCCCCCCCCCC(=O)[*:2]].T.V.F.R.S.S.E.[dK].R.R.S.A.D.N.F.I.[am]}$$$$V2.0), for which the Emax in data set [1] (setting [4]) was at least 80%. Further, the EC50 in data set [1] (setting [5]) was at most 25 nM. The EC50 in data set [1] (setting [6]) was found to be 15 nM. In data set [1] (Table 6, hAPJ HEK cells), the “% IA (cAMP inhibition, hAPJ HEK)” value was 117%. Further, in data set [1], the Ranking result was “**** (EC50≦25 nM (hAPJ), % IA≧80% and either % histamine>35% or formal (+) charge>1)”; the “inhibition of NKH477-stimulated increase” value is recorded as “inhibited”. Further, on CXCR4 receptor, the “activity at the CXCR4 receptor” value is reported as “lack of dose-responsive activity”.
`CCCCCCCCCCCCCCCC(=O)N[C@H](C(=O)N[C@H](C(=O)N[C@@H](Cc1ccccc1)C(=O)N[C@@H](CCCNC(=N)N)C(=O)N[C@@H](CO)C(=O)N[C@@H](CO)C(=O)N1CCC[C@H]1C(=O)N[C@@H](CCC(=O)O)C(=O)N[C@H](CCCCN)C(=O)N[C@@H](CCCNC(=N)N)C(=O)N[C@@H](CCCNC(=N)N)C(=O)N[C@@H](CO)C(=O)N[C@@H](C)C(=O)N[C@@H](CC(=O)O)C(=O)N[C@H](C(=O)N[C@@H](Cc1ccccc1)C(=O)N[C@H](C(N)=O)[C@@H](C)CC)[C@@H](C)CC)C(C)C)[C@@H](C)O` [Compound 25] (HELM PEPTIDE1{[CCCCCCCCCCCCCCCC(=O)[*:2]].T.V.F.R.S.S.P.E.[dK].R.R.S.A.D.I.F.I.[am]}$$$$V2.0): the EC50 in data set [1] (EC50 (cAMP inhibition, hAPJ HEK), Table 6, hAPJ HEK cells, NKH477-stimulated cAMP) was 15 nM; in data set [1] (EC50 (hAPJ), inhibition of cAMP production, bound stated, HTRF cAMP Assay, per data of Table 6) it was at most 25 nM; on APJ receptor [3] it was 3.1 nM. Also, the Emax in data set [1] (setting [4]) was at least 80%; at APJ receptor [3] (read-out: β-arrestin Signaling Max Response), 12.6%. In data set [1] (Table 6, hAPJ HEK cells), the “% IA (cAMP inhibition, hAPJ HEK)” value came to 138%. In addition, the Ranking entry in data set [1] is “**** (EC50≦25 nM (hAPJ), % IA≧80% and either % histamine>35% or formal (+) charge>1)”. For the same compound, the “inhibition of NKH477-stimulated increase” value in data set [1] was “inhibited”. The “β-arrestin recruitment” value on APJ receptor [3] (dose dependent chemiluminescence, FIGS. 3A-3B) was “weakly engaged”. In addition, in the data set with rat peritoneal cells, the “Histamine (% vs. 48/80)” value came out at 51%. Further, at APJ receptor [2], the “Average % Activity (ERK agonist activity)” value came out at 25.5%.
